Tests used:
[1] = molecular target: T1, Bromodomain-containing protein 2 (Homo sapiens, UniProt P25440); assay: Binding affinity to human partial length DNA-tagged BRD2 isoform 1 BD1 expressed in bacterial by BROMOscan method
[2] = molecular target: Bromodomain adjacent to zinc finger domain protein 2A (Homo sapiens, UniProt Q9UIF9); assay: Binding affinity to human partial length DNA-tagged BAZ2A expressed in bacterial by BROMOscan method
Peregrin = molecular target: T2, Peregrin (Homo sapiens, UniProt P55201); assay: Binding affinity to human partial length DNA-tagged BRPF1 expressed in bacterial by BROMOscan method
T2 sequence (P55201 whole entry): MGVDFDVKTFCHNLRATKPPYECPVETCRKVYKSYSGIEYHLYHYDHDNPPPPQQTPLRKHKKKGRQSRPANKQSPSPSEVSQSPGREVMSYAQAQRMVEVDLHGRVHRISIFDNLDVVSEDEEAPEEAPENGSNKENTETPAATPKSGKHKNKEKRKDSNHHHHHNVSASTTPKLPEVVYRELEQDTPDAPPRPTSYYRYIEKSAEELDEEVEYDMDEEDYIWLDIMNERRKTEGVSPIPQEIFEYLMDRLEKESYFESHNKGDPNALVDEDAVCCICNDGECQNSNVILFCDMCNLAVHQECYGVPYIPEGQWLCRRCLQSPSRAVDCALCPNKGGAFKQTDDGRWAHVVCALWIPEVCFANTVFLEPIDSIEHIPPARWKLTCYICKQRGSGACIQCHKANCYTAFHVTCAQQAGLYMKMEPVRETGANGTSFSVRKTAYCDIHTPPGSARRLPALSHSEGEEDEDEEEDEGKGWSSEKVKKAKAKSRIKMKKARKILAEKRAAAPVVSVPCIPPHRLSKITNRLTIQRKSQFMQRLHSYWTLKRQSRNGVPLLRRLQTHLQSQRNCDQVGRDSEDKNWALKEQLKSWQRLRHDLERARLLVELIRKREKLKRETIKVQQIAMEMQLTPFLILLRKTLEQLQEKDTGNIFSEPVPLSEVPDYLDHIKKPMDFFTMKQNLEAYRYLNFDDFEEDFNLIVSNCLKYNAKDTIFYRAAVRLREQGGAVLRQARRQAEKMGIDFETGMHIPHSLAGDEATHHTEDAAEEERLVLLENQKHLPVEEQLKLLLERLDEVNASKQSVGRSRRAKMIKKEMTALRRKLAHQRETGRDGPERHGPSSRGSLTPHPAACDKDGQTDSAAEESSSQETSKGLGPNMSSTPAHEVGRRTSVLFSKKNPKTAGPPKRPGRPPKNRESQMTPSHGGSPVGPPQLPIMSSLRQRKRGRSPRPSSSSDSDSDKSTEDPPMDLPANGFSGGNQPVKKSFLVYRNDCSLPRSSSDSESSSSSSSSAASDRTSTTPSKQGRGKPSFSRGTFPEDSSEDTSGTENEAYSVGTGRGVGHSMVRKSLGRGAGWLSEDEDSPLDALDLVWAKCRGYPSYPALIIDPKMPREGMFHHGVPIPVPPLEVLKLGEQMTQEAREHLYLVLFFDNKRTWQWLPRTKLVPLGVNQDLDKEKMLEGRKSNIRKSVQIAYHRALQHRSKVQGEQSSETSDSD

[3] = molecular target: Histone acetyltransferase KAT2B (Homo sapiens, UniProt Q92831); assay: Binding affinity to human partial length DNA-tagged PCAF expressed in mammalian expression system by BROMOscan method
[4] = molecular target: Bromodomain-containing protein 1 (Homo sapiens, UniProt O95696); assay: Binding affinity to human partial length DNA-tagged BRD1 expressed in bacterial by BROMOscan method
[5] = molecular target: SWI/SNF-related matrix-associated actin-dependent regulator of chromatin subfamily A member 4 (Homo sapiens, UniProt P51532); assay: Binding affinity to human partial length DNA-tagged SMARCA4 expressed in bacteria by BROMOscan method
[6] = molecular target: T1, Bromodomain-containing protein 2; assay: Binding affinity to human partial length DNA-tagged BRD2 isoform 1 BD2 expressed in bacterial by BROMOscan method
[7] = molecular target: ATPase family AAA domain-containing protein 2 (Homo sapiens, UniProt Q6PL18); assay: Binding affinity to human partial length DNA-tagged ATAD2A expressed in bacterial by BROMOscan method
[8] = molecular target: Nucleosome-remodeling factor subunit BPTF (Homo sapiens, UniProt Q12830); assay: Binding affinity to human partial length DNA-tagged FALZ isoform1 expressed in bacteria by BROMOscan method
CREB-binding protein = CREB-binding protein (Homo sapiens, UniProt Q92793); assay: Binding affinity to human partial length DNA-tagged CREBBP expressed in bacteria by BROMOscan method
[9] = molecular target: Transcription intermediary factor 1-alpha (Homo sapiens, UniProt O15164); assay: Binding affinity to human partial length DNA-tagged TRIM24(PHD,Bromo.) expressed in bacteria by BROMOscan method
[10] = molecular target: Bromodomain-containing protein 3 (Homo sapiens, UniProt Q15059); assay: Binding affinity to human partial length DNA-tagged BRD3 BD1 expressed in bacterial by BROMOscan method
Bromodomain-containing protein 3, sequence (Q15059 whole entry): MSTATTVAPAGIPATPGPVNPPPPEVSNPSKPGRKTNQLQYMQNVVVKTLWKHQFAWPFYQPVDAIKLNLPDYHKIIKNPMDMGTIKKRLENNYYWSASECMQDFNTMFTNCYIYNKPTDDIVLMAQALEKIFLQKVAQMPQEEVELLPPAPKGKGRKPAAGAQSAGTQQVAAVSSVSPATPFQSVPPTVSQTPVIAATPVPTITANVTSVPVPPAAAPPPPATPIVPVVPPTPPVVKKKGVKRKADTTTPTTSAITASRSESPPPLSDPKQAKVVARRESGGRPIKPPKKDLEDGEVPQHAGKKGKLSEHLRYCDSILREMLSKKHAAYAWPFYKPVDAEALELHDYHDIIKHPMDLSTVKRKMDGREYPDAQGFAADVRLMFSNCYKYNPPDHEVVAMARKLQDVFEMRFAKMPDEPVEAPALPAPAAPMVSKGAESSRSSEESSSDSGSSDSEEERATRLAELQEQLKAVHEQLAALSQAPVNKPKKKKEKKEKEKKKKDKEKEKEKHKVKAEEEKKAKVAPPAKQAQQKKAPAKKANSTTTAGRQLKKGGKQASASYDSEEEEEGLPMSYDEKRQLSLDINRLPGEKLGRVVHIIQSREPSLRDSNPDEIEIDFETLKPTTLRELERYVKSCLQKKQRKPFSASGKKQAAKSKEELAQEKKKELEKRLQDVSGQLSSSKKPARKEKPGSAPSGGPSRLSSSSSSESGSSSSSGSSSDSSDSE

[11] = molecular target: Histone acetyltransferase p300 (Homo sapiens, UniProt Q09472); assay: Binding affinity to human partial length DNA-tagged EP300 expressed in bacteria by BROMOscan method
Histone acetyltransferase p300, sequence (Q09472 whole entry): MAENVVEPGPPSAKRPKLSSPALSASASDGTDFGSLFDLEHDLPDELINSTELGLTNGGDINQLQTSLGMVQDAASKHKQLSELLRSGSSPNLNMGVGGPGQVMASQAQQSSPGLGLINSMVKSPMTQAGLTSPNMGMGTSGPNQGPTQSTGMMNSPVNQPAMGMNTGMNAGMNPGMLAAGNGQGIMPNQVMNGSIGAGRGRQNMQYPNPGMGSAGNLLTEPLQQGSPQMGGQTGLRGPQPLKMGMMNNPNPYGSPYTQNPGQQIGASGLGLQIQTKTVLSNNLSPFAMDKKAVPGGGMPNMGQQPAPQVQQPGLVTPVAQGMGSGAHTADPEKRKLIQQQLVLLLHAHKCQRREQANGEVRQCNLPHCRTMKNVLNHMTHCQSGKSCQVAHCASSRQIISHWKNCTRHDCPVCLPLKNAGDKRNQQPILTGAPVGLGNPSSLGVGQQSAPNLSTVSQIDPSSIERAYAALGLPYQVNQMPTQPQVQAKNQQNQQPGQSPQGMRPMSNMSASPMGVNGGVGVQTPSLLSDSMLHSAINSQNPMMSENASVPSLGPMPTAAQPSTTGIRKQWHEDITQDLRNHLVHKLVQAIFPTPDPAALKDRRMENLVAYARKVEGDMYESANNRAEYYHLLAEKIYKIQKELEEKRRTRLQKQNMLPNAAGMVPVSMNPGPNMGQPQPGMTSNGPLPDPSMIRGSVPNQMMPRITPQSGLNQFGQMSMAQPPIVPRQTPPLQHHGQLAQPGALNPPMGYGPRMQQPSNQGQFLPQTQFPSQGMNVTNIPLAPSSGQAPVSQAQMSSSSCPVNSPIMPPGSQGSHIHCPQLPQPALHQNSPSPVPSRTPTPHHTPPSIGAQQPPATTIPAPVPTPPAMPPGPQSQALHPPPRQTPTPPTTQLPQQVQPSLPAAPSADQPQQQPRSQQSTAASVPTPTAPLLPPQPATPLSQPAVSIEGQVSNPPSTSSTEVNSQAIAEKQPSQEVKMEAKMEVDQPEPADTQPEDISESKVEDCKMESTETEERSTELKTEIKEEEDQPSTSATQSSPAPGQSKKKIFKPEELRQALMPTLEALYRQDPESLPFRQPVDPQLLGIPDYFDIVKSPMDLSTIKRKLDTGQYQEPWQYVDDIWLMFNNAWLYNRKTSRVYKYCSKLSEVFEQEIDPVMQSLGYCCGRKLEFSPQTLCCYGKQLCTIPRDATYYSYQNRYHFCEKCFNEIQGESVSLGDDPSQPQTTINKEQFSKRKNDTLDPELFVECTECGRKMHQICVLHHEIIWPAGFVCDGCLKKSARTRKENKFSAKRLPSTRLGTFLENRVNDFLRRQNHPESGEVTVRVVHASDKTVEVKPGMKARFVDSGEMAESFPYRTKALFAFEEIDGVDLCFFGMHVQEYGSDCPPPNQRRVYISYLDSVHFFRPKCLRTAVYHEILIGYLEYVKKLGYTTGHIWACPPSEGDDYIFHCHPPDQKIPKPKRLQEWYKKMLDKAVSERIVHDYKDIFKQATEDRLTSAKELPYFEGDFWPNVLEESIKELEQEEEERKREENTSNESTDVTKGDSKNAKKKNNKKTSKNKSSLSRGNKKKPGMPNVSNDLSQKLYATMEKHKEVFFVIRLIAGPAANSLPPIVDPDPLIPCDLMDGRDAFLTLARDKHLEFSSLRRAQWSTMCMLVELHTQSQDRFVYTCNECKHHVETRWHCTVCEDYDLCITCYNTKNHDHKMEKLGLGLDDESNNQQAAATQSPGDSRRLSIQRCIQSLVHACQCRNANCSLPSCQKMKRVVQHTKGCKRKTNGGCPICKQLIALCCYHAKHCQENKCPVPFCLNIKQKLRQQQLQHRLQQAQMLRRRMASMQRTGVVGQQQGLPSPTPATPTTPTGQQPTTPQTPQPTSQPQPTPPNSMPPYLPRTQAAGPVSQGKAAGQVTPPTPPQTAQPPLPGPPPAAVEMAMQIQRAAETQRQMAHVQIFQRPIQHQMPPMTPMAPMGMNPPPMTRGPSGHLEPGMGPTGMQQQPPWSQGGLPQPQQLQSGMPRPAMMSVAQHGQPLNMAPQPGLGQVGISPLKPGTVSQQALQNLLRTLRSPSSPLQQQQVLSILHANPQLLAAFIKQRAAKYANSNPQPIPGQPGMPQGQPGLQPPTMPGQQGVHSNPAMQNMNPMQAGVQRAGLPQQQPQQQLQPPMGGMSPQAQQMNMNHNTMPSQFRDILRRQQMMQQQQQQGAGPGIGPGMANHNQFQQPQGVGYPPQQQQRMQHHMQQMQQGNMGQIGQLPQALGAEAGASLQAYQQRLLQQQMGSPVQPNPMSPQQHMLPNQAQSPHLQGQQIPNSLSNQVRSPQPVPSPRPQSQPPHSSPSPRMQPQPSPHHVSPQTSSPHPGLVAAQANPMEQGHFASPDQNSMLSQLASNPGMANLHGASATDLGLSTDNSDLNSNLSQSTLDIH

Protein polybromo-1 = Protein polybromo-1 (Homo sapiens, UniProt Q86U86); assay: Binding affinity to human partial length DNA-tagged PBRM1 BD5 expressed in bacteria by BROMOscan method
[12] = molecular target: Bromodomain-containing protein 4 (Homo sapiens, UniProt O60885, Y97A)
Homo sapiens = species on record: Homo sapiens; assay: Selectivity ratio of IC50 for BRDT BD1 (unknown origin) to IC50 for BRDT BD2 (unknown origin)
[13] = molecular target: T3, Bromodomain testis-specific protein (Homo sapiens, UniProt Q58F21); assay: Selectivity ratio of Kd for human partial length DNA-tagged BRDT isoform b BD1 to Kd for human partial length DNA-tagged BRDT isoform b BD2
[14] = molecular target: Bromodomain-containing protein 8 (Homo sapiens, UniProt Q9H0E9); assay: Binding affinity to DNA-tagged BRD8 (unknown origin) by BROMOscan method
[15] = molecular target: Bromodomain-containing protein 7 (Homo sapiens, UniProt Q9NPI1); assay: Binding affinity to human partial length DNA-tagged BRD7 expressed in mammalian expression system by BROMOscan method
[16] = molecular target: T3, Bromodomain testis-specific protein; assay: Binding affinity to human partial length DNA-tagged BRDT isoform b BD2 expressed in bacterial by BROMOscan method
[17] = molecular target: T3, Bromodomain testis-specific protein; assay: Binding affinity to human partial length DNA-tagged BRDT isoform b BD1 expressed in bacterial by BROMOscan method
[18] = molecular target: T3, Bromodomain testis-specific protein; assay: Inhibition of BRDT BD1 (unknown origin) after 30 mins by TR-FRET assay
[19] = Solubility of the compound in pH 7.4 phosphate buffered saline by chemiluminescent nitrogen detection method; format: physicochemical
[20] = molecular target: Bromodomain and PHD finger-containing protein 3 (Homo sapiens, UniProt Q9ULD4); assay: Binding affinity to human partial length DNA-tagged BRPF3 expressed in bacteria by BROMOscan method
Bromodomain and PHD finger-containing protein 3, sequence (Q9ULD4 whole entry): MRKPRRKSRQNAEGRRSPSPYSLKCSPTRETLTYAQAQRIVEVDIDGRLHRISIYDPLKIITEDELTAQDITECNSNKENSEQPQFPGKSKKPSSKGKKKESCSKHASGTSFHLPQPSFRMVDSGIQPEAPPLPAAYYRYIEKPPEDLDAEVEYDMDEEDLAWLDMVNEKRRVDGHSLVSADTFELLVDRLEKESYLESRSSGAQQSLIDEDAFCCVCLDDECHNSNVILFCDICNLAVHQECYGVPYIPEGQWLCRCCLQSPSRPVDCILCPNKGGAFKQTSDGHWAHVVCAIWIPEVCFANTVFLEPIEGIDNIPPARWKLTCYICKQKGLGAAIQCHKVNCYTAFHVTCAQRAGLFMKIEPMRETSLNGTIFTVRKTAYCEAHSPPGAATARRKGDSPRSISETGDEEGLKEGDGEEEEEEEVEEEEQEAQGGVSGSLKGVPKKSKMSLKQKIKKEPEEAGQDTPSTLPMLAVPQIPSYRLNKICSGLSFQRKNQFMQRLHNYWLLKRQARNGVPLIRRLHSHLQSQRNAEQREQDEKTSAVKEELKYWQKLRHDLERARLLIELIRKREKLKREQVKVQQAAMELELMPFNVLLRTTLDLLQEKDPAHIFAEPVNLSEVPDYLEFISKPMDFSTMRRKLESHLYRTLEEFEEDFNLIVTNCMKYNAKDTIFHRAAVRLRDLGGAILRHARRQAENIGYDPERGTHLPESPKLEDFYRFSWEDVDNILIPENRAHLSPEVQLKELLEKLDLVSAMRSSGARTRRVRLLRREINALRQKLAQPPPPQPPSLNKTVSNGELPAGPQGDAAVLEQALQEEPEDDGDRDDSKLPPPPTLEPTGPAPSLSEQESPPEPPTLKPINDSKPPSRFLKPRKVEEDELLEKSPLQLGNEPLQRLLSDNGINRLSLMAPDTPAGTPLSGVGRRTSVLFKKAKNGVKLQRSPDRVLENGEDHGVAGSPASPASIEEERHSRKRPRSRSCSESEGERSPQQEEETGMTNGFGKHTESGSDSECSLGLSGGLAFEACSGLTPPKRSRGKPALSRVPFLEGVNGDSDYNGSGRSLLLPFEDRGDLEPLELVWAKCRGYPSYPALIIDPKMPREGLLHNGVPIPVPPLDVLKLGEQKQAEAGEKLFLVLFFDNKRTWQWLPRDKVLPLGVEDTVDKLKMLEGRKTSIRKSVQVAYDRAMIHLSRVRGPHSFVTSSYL

T1 sequence (P25440 whole entry, the tested form may be a part, canonical isoform): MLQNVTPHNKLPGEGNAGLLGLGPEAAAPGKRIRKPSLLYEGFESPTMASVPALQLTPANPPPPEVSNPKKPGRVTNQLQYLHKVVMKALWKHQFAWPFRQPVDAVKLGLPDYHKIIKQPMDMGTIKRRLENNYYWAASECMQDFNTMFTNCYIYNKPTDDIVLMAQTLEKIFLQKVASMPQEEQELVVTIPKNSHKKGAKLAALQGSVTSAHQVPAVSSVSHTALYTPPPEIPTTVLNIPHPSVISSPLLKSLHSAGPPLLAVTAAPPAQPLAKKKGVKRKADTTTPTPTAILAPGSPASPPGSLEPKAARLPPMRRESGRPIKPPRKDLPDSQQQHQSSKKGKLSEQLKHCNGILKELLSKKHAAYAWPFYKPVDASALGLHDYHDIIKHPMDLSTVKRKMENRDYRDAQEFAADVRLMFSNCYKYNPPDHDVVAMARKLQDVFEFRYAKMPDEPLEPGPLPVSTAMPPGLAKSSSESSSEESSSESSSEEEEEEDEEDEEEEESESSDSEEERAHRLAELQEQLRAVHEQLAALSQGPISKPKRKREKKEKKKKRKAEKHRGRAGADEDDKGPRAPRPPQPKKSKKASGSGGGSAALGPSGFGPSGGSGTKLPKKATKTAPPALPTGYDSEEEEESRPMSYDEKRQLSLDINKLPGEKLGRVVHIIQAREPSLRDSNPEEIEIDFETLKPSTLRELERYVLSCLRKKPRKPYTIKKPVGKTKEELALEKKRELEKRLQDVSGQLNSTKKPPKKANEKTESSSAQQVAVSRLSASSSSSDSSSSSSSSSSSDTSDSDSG

## CC(=O)N1c2ccc(C3=CCNCC3)cc2N(Cc2ccccc2CO)C[C@@H]1C1CC1
[1]
  Kd: 1.32 µM
[2]
  Kd: > 30.2 µM
Peregrin
  Kd: 2.45 µM
[3]
  Kd: > 30.2 µM
[4]
  Kd: > 30.2 µM
[5]
  Kd: > 30.2 µM
[6]
  Kd: 0.0324 µM
[7]
  Kd: > 30.2 µM
[8]
  Kd: > 30.2 µM
CREB-binding protein
  Kd: > 30.2 µM
[9]
  Kd: > 30.2 µM
[10]
  Kd: 0.912 µM
[11]
  Kd: > 30.2 µM
Protein polybromo-1
  Kd: > 30.2 µM
[12]
  IC50: 0.0631 µM
Homo sapiens
  Ratio IC50: 8
[13]
  Selectivity ratio: 91
[14]
  Kd: > 30.2 µM
[15]
  Kd: > 30.2 µM
[16]
  Kd: 0.0209 µM
[17]
  Kd: 1.86 µM
[18]
  IC50: 1.58 µM
[19]
  solubility: ≥ 418 µM
[20]
  Kd: > 30.2 µM

Source: ChEMBL document CHEMBL4184317, “Discovery of Tetrahydroquinoxalines as Bromodomain and Extra-Terminal Domain (BET) Inhibitors with Selectivity for the Second Bromodomain” (J Med Chem, 2018)
